# Results: ChEMBL document CHEMBL3885881, “DrugMatrix”
# Species on record: Rattus norvegicus
# Assay type: toxicity, organism-based, Sprague-Dawley
# Conditions: in vivo, po, 24 h, route oral GAVAGE, time 1 day; for ABSOLUTE EOSINOPHIL / ABSOLUTE LYMPHOCYTE / ABSOLUTE MONOCYTE / ABSOLUTE SEGMENTED NEUTROPHIL / BASOPHIL / EOSINOPHIL / ERYTHROCYTE COUNT / HEMATOCRIT / HEMOGLOBIN / LEUKOCYTE COUNT / LYMPHOCYTE / MEAN CORPUSCULAR HEMOGLOBIN / MEAN CORPUSCULAR HEMOGLOBIN CONCENTRATION / MEAN CORPUSCULAR VOLUME / MONOCYTE / NEUTROPHIL / NUCLEATED RED BLOOD CELLS / PLATELET COUNT / ABSOLUTE BASOPHIL: tissue Blood; for ALANINE AMINOTRANSFERASE / ALBUMIN / ALKALINE PHOSPHATASE / ASPARTATE AMINOTRANSFERASE / BLOOD UREA NITROGEN / CARBON DIOXIDE / CHLORIDE / CHOLESTEROL / CREATININE / GLUCOSE / LACTATE DEHYDROGENASE / LIPASE / PHOSPHORUS / POTASSIUM / SODIUM / TOTAL BILIRUBIN / TOTAL PROTEIN / URIC ACID / CREATINE PHOSPHOKINASE: tissue Plasma
# [1] = 0 mg/kg, vehicle control, dose level Control, vehicle .5 % CMC
# [2] = 740 mg/kg, dose level High, vehicle .5 % CMC
# [3] = 0 mg/kg, vehicle control, dose level Control, vehicle 100 % SALINE
# [4] = 2 mg/kg, dose level High, vehicle 100 % SALINE
# Description: DrugMatrix - Regimen: Single
compound,measurement,setting,value
COc1ccccc1[N+](=O)[O-] [2-NITROANISOLE],ABSOLUTE EOSINOPHIL,[1],150 CELLS/uL
same,ABSOLUTE LYMPHOCYTE,[1],13279.83 CELLS/uL
same,ABSOLUTE MONOCYTE,[1],654.5 CELLS/uL
same,ABSOLUTE SEGMENTED NEUTROPHIL,[1],1565.67 CELLS/uL
same,BASOPHIL,[1],0%
same,EOSINOPHIL,[1],1%
same,ERYTHROCYTE COUNT,[1],5.36 x10E6/uL
same,HEMATOCRIT,[1],33.37%
same,HEMOGLOBIN,[1],12.52 G/DL
same,LEUKOCYTE COUNT,[1],15.65 x10E3/uL
same,LYMPHOCYTE,[1],84.83%
same,MEAN CORPUSCULAR HEMOGLOBIN,[1],23.4 pg
same,MEAN CORPUSCULAR HEMOGLOBIN CONCENTRATION,[1],37.52 G/DL
same,MEAN CORPUSCULAR VOLUME,[1],62.32 fL
same,MONOCYTE,[1],4.17%
same,NEUTROPHIL,[1],10%
same,NUCLEATED RED BLOOD CELLS,[1],0 /100WBC
same,PLATELET COUNT,[1],1020 x10E3/uL
same,ALANINE AMINOTRANSFERASE,[1],49 u/L
same,ALBUMIN,[1],4.47 G/DL
same,ALKALINE PHOSPHATASE,[1],361.17 u/L
same,ASPARTATE AMINOTRANSFERASE,[1],78.67 u/L
same,BLOOD UREA NITROGEN,[1],13.17 mg/dL
same,CARBON DIOXIDE,[1],29.67 mmol/L
same,CHLORIDE,[1],100.83 MEQ/L
same,CHOLESTEROL,[1],82.17 mg/dL
same,CREATININE,[1],0.15 mg/dL
same,GLUCOSE,[1],150.83 mg/dL
same,LACTATE DEHYDROGENASE,[1],239.17 u/L
same,LIPASE,[1],7.83 u/L
same,PHOSPHORUS,[1],13.82 mg/dL
same,POTASSIUM,[1],6.62 MEQ/L
same,SODIUM,[1],144.25 MEQ/L
same,TOTAL BILIRUBIN,[1],0.15 mg/dL
same,TOTAL PROTEIN,[1],6.2 G/DL
same,URIC ACID,[1],1.57 mg/dL
same,ABSOLUTE EOSINOPHIL,[2],270.67 CELLS/uL
same,ABSOLUTE LYMPHOCYTE,[2],12900.33 CELLS/uL
same,ABSOLUTE MONOCYTE,[2],775.33 CELLS/uL
same,ABSOLUTE SEGMENTED NEUTROPHIL,[2],1353.67 CELLS/uL
same,BASOPHIL,[2],0%
same,EOSINOPHIL,[2],2%
same,ERYTHROCYTE COUNT,[2],5.82 x10E6/uL
same,HEMATOCRIT,[2],35.73%
same,HEMOGLOBIN,[2],13 G/DL
same,LEUKOCYTE COUNT,[2],15.3 x10E3/uL
same,LYMPHOCYTE,[2],84.33%
same,MEAN CORPUSCULAR HEMOGLOBIN,[2],22.4 pg
same,MEAN CORPUSCULAR HEMOGLOBIN CONCENTRATION,[2],36.43 G/DL
same,MEAN CORPUSCULAR VOLUME,[2],61.43 fL
same,MONOCYTE,[2],5%
same,NEUTROPHIL,[2],8.67%
same,NUCLEATED RED BLOOD CELLS,[2],0 /100WBC
same,PLATELET COUNT,[2],1078.67 x10E3/uL
same,ALANINE AMINOTRANSFERASE,[2],63 u/L
same,ALBUMIN,[2],4.53 G/DL
same,ALKALINE PHOSPHATASE,[2],432.67 u/L
same,ASPARTATE AMINOTRANSFERASE,[2],85.67 u/L
same,BLOOD UREA NITROGEN,[2],13 mg/dL
same,CARBON DIOXIDE,[2],29 mmol/L
same,CHLORIDE,[2],102.33 MEQ/L
same,CHOLESTEROL,[2],77.67 mg/dL
same,CREATININE,[2],0.2 mg/dL
same,GLUCOSE,[2],124.33 mg/dL
same,LACTATE DEHYDROGENASE,[2],283.67 u/L
same,LIPASE,[2],9 u/L
same,PHOSPHORUS,[2],12.9 mg/dL
same,POTASSIUM,[2],7.13 MEQ/L
same,SODIUM,[2],144.43 MEQ/L
same,TOTAL BILIRUBIN,[2],0.27 mg/dL
same,TOTAL PROTEIN,[2],6.03 G/DL
same,URIC ACID,[2],1.33 mg/dL
COc1cccc2c1C(=O)c1c(O)c3c(c(O)c1C2=O)C[C@@](O)(C(C)=O)C[C@@H]3O[C@H]1C[C@H](N)[C@H](O)[C@H](C)O1 [DAUNORUBICIN],ABSOLUTE BASOPHIL,[3],73.3 cells/µL
same,ABSOLUTE EOSINOPHIL,[3],86.7 cells/µL
same,ABSOLUTE LYMPHOCYTE,[3],8400 cells/µL
same,ABSOLUTE MONOCYTE,[3],350 cells/µL
same,BASOPHIL,[3],0.63%
same,EOSINOPHIL,[3],0.73%
same,ERYTHROCYTE COUNT,[3],6.55 x10E6/uL
same,HEMATOCRIT,[3],42.83%
same,HEMOGLOBIN,[3],13.6 G/DL
same,LEUKOCYTE COUNT,[3],11.33 x10E3/uL
same,LYMPHOCYTE,[3],74.77%
same,MEAN CORPUSCULAR HEMOGLOBIN,[3],20.77 pg
same,MEAN CORPUSCULAR HEMOGLOBIN CONCENTRATION,[3],31.7 G/DL
same,MEAN CORPUSCULAR VOLUME,[3],65.53 fL
same,MONOCYTE,[3],3%
same,NEUTROPHIL,[3],20.2%
same,PLATELET COUNT,[3],1394.33 x10E3/uL
same,ALANINE AMINOTRANSFERASE,[3],34 u/L
same,ALBUMIN,[3],4.03 G/DL
same,ALKALINE PHOSPHATASE,[3],345.33 u/L
same,ASPARTATE AMINOTRANSFERASE,[3],69.67 u/L
same,BLOOD UREA NITROGEN,[3],14.33 mg/dL
same,CARBON DIOXIDE,[3],46 mmol/L
same,CHLORIDE,[3],102.67 MEQ/L
same,CHOLESTEROL,[3],85 mg/dL
same,CREATINE PHOSPHOKINASE,[3],292 u/L
same,CREATININE,[3],0.2 mg/dL
same,GLUCOSE,[3],168 mg/dL
same,LIPASE,[3],13 u/L
same,PHOSPHORUS,[3],11.2 mg/dL
same,POTASSIUM,[3],7.07 MEQ/L
same,SODIUM,[3],144.67 MEQ/L
same,TOTAL BILIRUBIN,[3],0.27 mg/dL
same,TOTAL PROTEIN,[3],6.57 G/DL
same,URIC ACID,[3],0.73 mg/dL
same,ABSOLUTE BASOPHIL,[4],30 cells/µL
same,ABSOLUTE EOSINOPHIL,[4],60 cells/µL
same,ABSOLUTE LYMPHOCYTE,[4],7160 cells/µL
same,ABSOLUTE MONOCYTE,[4],260 cells/µL
same,BASOPHIL,[4],0.33%
same,EOSINOPHIL,[4],0.67%
same,ERYTHROCYTE COUNT,[4],6.43 x10E6/uL
same,HEMATOCRIT,[4],42.57%
same,HEMOGLOBIN,[4],13.5 G/DL
same,LEUKOCYTE COUNT,[4],9.23 x10E3/uL
same,LYMPHOCYTE,[4],77.03%
same,MEAN CORPUSCULAR HEMOGLOBIN,[4],21.03 pg
same,MEAN CORPUSCULAR HEMOGLOBIN CONCENTRATION,[4],31.73 G/DL
same,MEAN CORPUSCULAR VOLUME,[4],66.3 fL
same,MONOCYTE,[4],2.83%
same,NEUTROPHIL,[4],18.5%
same,PLATELET COUNT,[4],1328.67 x10E3/uL
same,ALANINE AMINOTRANSFERASE,[4],37.33 u/L
same,ALBUMIN,[4],3.93 G/DL
same,ALKALINE PHOSPHATASE,[4],397.67 u/L
same,ASPARTATE AMINOTRANSFERASE,[4],67.67 u/L
same,BLOOD UREA NITROGEN,[4],13.67 mg/dL
same,CARBON DIOXIDE,[4],39.33 mmol/L
same,CHLORIDE,[4],104.67 MEQ/L
same,CHOLESTEROL,[4],84 mg/dL
same,CREATINE PHOSPHOKINASE,[4],230.33 u/L
same,CREATININE,[4],0.27 mg/dL
same,GLUCOSE,[4],179 mg/dL
same,LACTATE DEHYDROGENASE,[4],60.33 u/L
same,LIPASE,[4],9.67 u/L
same,PHOSPHORUS,[4],11.57 mg/dL
same,POTASSIUM,[4],6.13 MEQ/L
same,SODIUM,[4],146 MEQ/L
same,TOTAL BILIRUBIN,[4],0.2 mg/dL
same,TOTAL PROTEIN,[4],6.37 G/DL
same,URIC ACID,[4],1 mg/dL
